Test results: patent US20090035215A1, “RADIOFLUORINATION” (priority 2006, published 2009)

Experiment: TABLE 1
Source text: Table printed on a drawing sheet, TABLE 1
The patent's description of the figure: FIGS. 1A, 1B, 1C, 2A, 2B, 2C, 3A, 3B AND 3C SHOW INTENSITY/RETENTION TIME CURVES FOR VARIOUS PRODUCTS.

Structure (SMILES): CC(C)[Si](F)(c1ccc(CCCO)cc1)C(C)C [4c - F]
- t1/2: > 100.0 h

Structure (SMILES): CC(C)[Si](F)(c1cccc(CCCOC2CCCCO2)c1)C(C)C (racemic) [3d - F]
- % intact after 6 h: > 95%
- t1/2: > 100.0 h

Structure (SMILES): CC(C)[Si](F)(c1cccc(CCOC2CCCCO2)c1)C(C)C (racemic) [3e - F]
- % intact after 6 h: > 95%
- t1/2: > 100.0 h
